From a melting point compilation (Tetko et al.; mined from patent text by program, amines drawn as free bases though some values may be those of a salt)

Compound | melting point
CC12CC(O)C3(F)C(CCC4=CC(=O)C=CC43C)C1CCC2S (configuration not stated) | 295 to 297 °C
Nc1cccc2c1CNC2=O | 196 to 197 °C
O=C1N(N2CCOCC2)c2ccccc2C1(O)Cc1ccccn1 (configuration not stated) | 168 to 170 °C
O=C(Cc1ccccn1)N1CCN(C(=O)Oc2ccc(Oc3ccc(C(F)(F)F)cn3)cc2)CC1 | 143 to 146 °C
Cc1csc2ncc(C=O)n12 | 163 to 165 °C
N#CSCC(Cl)=C(Cl)CSC#N | 166 to 169 °C
CCCCCCCCCCCCCCCCCCCCCCC(NC(C)=O)(C(=O)OCC)C(=O)OCC | 79 to 80 °C
CC(=O)N1CCN(c2ccc(-c3cnc4[nH]cc(C(=O)C5(C)CCCCC5)c4n3)cc2)CC1 | 278 to 285 °C
CC(Cn1nccn1)n1nnc2cc3c(=O)n(C(C)Cn4ncnn4)nnc3cc2c1=O (configuration not stated) | 139 to 140 °C
Cc1nc2ccc3c(c2o1)C(CCNC(=O)C1CC1)CC3 (configuration not stated) | 134 to 137 °C
COc1cc(N)c2nccc(C)c2c1F | 126 to 128 °C
Cc1c(Br)ccc([N+](=O)[O-])c1C#N | 116 to 118 °C
CCC1(CC)C(=O)C(C)N(c2ccc(C#N)c(Cl)c2)C1=O (configuration not stated) | 93.5 to 94.5 °C
N#CCCn1nnc2cc3c(cc2c1=O)OC1CCCN1C3=O (configuration not stated) | 184 to 186 °C
N#Cc1cc(N)ccc1N | 85 to 87 °C
NC(=O)C1(/C=C2\CN3C(=O)CC3O2)C=CC=CC1 (configuration not stated) | 197 to 199 °C
CCc1cc(O)c(C(C)=O)c(O)c1 | 121 to 123 °C
CCCCCN1CC[C@@H](c2ccccc2Cl)[C@H](CO)C1 (racemic) | 101 to 102 °C
OCCOCC(O)c1ccc(OCc2ccccc2)cc1 (configuration not stated) | 116 to 117 °C

Compound | melting point
Clc1ccc2c(c1)N(c1ncnc3ccc(N4CCOCC4)cc13)CC2 | 277 to 279 °C
C[C@@H]1N=C(c2ccccc2)c2cc(C#CCCCC(=O)O)ccc2N(C)C1=O | 62 to 63 °C
CC(O)C(C)(C)NC(=O)[C@@H]1CCCN1C(=O)[C@@H](O)[C@H](Cc1ccccc1)NC(=O)[C@H](CC(N)=O)NC(=O)OCc1ccccc1 (some centres not stated) | 102 to 104 °C
Cc1nc(-n2cnn(CC3CC3)c2=O)sc1C(=O)NCc1ccncc1 | 169 to 170 °C
CCN1C(=O)C(C)(C)C(=O)N(C)c2cc(CN(CCn3ccc4oc(C)cc4c3=O)Cc3cccnc3)ccc21 | 124 to 127 °C
N#CC1(NC(=O)c2ccccc2C(=O)O)CCCCC1 | 154 to 156 °C
CC(=O)N(C(C)=O)c1ccc2c(c1)C(C(Cl)(Cl)Cl)OC(C(Cl)(Cl)Cl)O2 (configuration not stated) | 147 to 148 °C
CCOCc1nc2c(N)nc3cc(O)ccc3c2n1CC(C)(C)NC(C)=O | 140 °C
CC1NC(=NO)OC1c1ccccc1 (configuration not stated) | 145 to 148 °C
COc1cc(C(=O)O)cc2c1C(=O)c1c(OC)ccc(OC)c1C2=O | 260 to 262 °C
COc1ccccc1Oc1c(NS(=O)(=O)c2cc(Cl)sc2Cl)nc(-c2ncccn2)nc1OCCOC(=O)Nc1ccccn1 | 194 to 197 °C
CCc1cnc(N2CCN(C(=O)c3ccccc3NC3(c4ccccc4)NC=Nc4ccccc43)CC2)nc1 (configuration not stated) | > 250 °C
CCc1cc(OC)cc(=O)o1 | 54 to 55 °C
COc1ccccc1C1(O)C(O)CC(c2ccccc2)(c2ccccc2)C2CN(Cc3ccccc3)CC21 (configuration not stated) | 236 °C
CC(=O)N[C@H]1C=C[C@@H](CO)C1 | 77 to 80 °C
O=C1c2cccc(O)c2CCC1CN1CCC(O)(c2ccccc2)CC1 (configuration not stated) | 187 to 189 °C
CC(C)(C)OC(=O)N1CCOS1(=O)=O | 122 °C
O=C1C=CC=C2CN=CC=C12 | 232 to 234 °C
Cc1nn(C)c2ncc3c(c12)CCC(C)C3 (configuration not stated) | 92 to 101 °C

Compound | melting point
COc1nsc(NC(=O)[C@H](C)NC(=O)[C@H](Cc2ccccc2)NC(=O)OCc2ccccc2)n1 | 161 to 162 °C
O=C1Cc2cc(Cl)c(N3CCCCC3)cc2O1 | 129 to 131 °C
COC(=O)c1cc(-n2c(Cl)nc(C(F)(F)F)cc2=O)c(F)cc1Cl | 89 to 91 °C
Cc1ccc(OC2SCC(O)C(O)C2O)c(F)n1 (configuration not stated) | 167 to 170 °C
CN(c1ccccc1)c1nc(Cl)nc(Cl)n1 | 132 °C
Oc1onc(CCCc2cccc(OCc3ccccc3)c2)c1C(c1ccccc1)c1ccccc1 | 89 to 90.5 °C
CCCc1nc2c(N)nc(C)c(C)c2n1CCCC(=O)N1CCOCC1 | 164 to 165 °C
CC(C)c1nc(CO)c(CO)[nH]1 | 200 to 201 °C
COc1cc(OCc2ccccn2)ccc1/C=C/c1cc(/C=C/c2ccc3ccn(C)c3c2)[nH]n1 | 172 to 174 °C
Nc1nc(-c2cc(Cl)ccc2Cl)nc(N2CCN(c3ncccn3)CC2)n1 | 224 to 225 °C
CCCCn1nc(C(C)=O)nc1Cc1ccc(-c2ccccc2-c2nnn[nH]2)nc1 | 157 to 159 °C
Nc1ccc(S(=O)(=O)Nc2ccccc2C(=O)NCCCn2ccnc2)cc1 | 171 to 175 °C
COc1ccc(C2=NN(C3CCOCC3)C(=O)[C@H]3CC=CC[C@@H]23)cc1OC (relative stereo) | 175 to 177 °C
NC(=O)NN=C(CCl)COc1ccc(Cl)cn1 | 115 to 117 °C
O=C1CC(=O)N(c2ccccc2)c2cc(Cl)ccc2N1CC1CC1 | 215 to 218 °C
c1cc2cc(-c3cn([C@H]4CN5CCC4CC5)nn3)ccc2o1 | 178 °C
CC(C)c1nc(COCc2ccccc2)n(CC(C)(C)O)c1Sc1cc(Cl)cc(Cl)c1 | 181 to 182 °C
CC(=O)CN1CCc2c(c(=O)oc3cc(C)c(C)cc23)C1 | 136 to 138 °C

Second part, the compound after the results:

melting point | Compound
215 °C | CCOC(=O)C1=C(N)NC(N)=C(C(=O)OCC)C1c1ccccc1-c1ccccc1
191 °C | CCOc1ccc2c(c1)n(C1CCCCC1)c(=O)n2Cc1ccc(N)cc1OC
131 to 132 °C | COC(=O)C(OC)c1ccc2nc(-c3ccc(Cl)cc3)oc2c1 (configuration not stated)
113 to 115 °C | CC(CSC(=O)c1ccccc1)C(=O)N(CC(=O)O)C1Cc2ccccc2C1 (configuration not stated)
86 to 89 °C | CCOP(=O)(CC(Cc1ccccc1)NS(=O)(=O)c1ccc(C)cc1)OCC (configuration not stated)
314 to 316 °C | CC1(C)CC(=O)Nc2cc(-c3nc4ccccc4[nH]3)ccc21
249 to 251 °C | O=c1nc(-c2ccc([N+](=O)[O-])cc2)oc2ccccc12
93 to 94 °C | CC(=O)Nc1cccc(C#CCCn2nc3ccccc3n2)n1
300 °C | NS(=O)(=O)c1ccc(-c2c(-c3ccccc3)noc2C(=O)O)cc1
54 to 56 °C | CCOC(=O)CC(=O)c1cc(I)ccc1F
269 to 271 °C | CCOc1ccc(C(=O)NCc2ccc3c(c2)CN(C2CCC(=O)NC2=O)C3=O)cc1 (configuration not stated)
185 to 187 °C | Cc1nc2ccccc2n(-c2ccc(Cl)cc2)c1=O
116 to 118 °C | COCCN1CCc2ccc(Nc3ncc4ccc(-c5ccccc5)n4n3)cc2CC1
58 to 60 °C | CON(O)C(=O)c1ccccc1
120 to 122 °C | CCC1(O)OC(=O)c2ccc(Oc3ccc(C(F)(F)F)cc3Cl)cc21 (configuration not stated)
195 to 197 °C | CN(C)CCNC(=O)Cn1c(-c2ccc(Br)cc2)nc2cccnc21
150 to 154 °C | CC(C)C[C@H](NC(=O)c1ccccc1)C(=O)N[C@@H](C(C)C)[C@@H](O)c1c(-c2ccccc2)c1=O
224 to 227 °C | O=C(Nc1ccc2[nH]c(=O)oc2c1)C(=O)N1CCC(Cc2ccc(F)cc2)CC1
137 to 138 °C | CSc1c(O)ccc2c1[nH]c1ccccc12
75 to 76 °C | CCOC(=O)/C=C/c1cc(OC)c(O)c2c(CC)cccc12
246 to 248 °C | Cc1nc2c(c3c1[nH]c1ccccc13)C(=O)CC(c1ccccc1)C2 (configuration not stated)
116 to 118 °C | COc1cccc(-c2ccc(-c3ccc(C(=O)O)cc3)cc2-c2ccc3c(c2)C(C)(C)CCC3(C)C)c1
106 to 108 °C | COc1ccc2[nH]c(SCc3nccc(SCc4ccco4)c3C)nc2c1

melting point | Compound
176 to 179 °C | O=C(c1ccc2c(c1)[C@@H](O)[C@H](Br)CCO2)c1ccccc1C(F)(F)F (relative stereo)
152 to 155 °C | O=C(c1ccc(F)cc1)C1CCN(CCCC2CCc3onc(-c4ccc(Cl)cc4)c3C2O)CC1 (configuration not stated)
92.5 to 93.5 °C | CCOC(=O)c1ccc(-c2ccc3c(c2)OCO3)cc1
161 °C | COc1ccc(-c2ccc(C(=O)Nc3cc4ncc(CN5CCCCCC5)cc4cc3C)cc2)cc1
99 to 100 °C | CSc1noc(-c2ccc(OCCCc3ccccc3)cc2)c1C#N
159 to 161 °C | O=C(c1ccccc1)c1oc2ccccc2c1-c1ccc(-c2ccc(OC(Cc3ccccc3)C(=O)O)cc2)cc1 (configuration not stated)
80 to 82 °C | CC(C)(C)C(=O)Oc1ccc(CCNC(=O)c2cccnc2)cc1
115 to 117 °C | CCOc1ccc2c(c1)CCC(Oc1ncnc3ccccc13)C2 (configuration not stated)
229 to 232 °C | CC(O)(c1ccncc1)c1cnc(-c2ccc(F)cc2)s1 (configuration not stated)
193 to 194 °C | CN(C)C(=O)Cc1ccc2[nH]cc(CCN3C(=O)c4ccccc4C3=O)c2c1
140 °C | CS(=O)(=O)c1ccc(-c2ccccc2N2CCCCC2)cc1
243 to 244 °C | COc1ccc(CC(C)(N)C(=O)O)cc1 (configuration not stated)
222 °C | Cc1ccc2c(c1)N=C(N1CCN(C)CC1)c1cscc1O2
178 °C | CCCn1nc(SC2CCC(CC(=O)O)CC2)c(C(=O)O)c1Cc1cc2c(cc1Cl)OCO2 (configuration not stated)
168 °C | Cc1ccc2c(c1)CC(=O)N2
97 to 98 °C | CCCCCC(O)c1cccc(OCc2cccc(C(N)=O)c2)c1 (configuration not stated)
102 to 103 °C | CCCOc1cccc(CO)c1-c1ccc(OC)cc1O
234 to 236 °C | CSc1ccc(-c2nc(SC)c(C#N)c(=O)n2-c2ccc(C)c(C)c2)cc1
158 to 159 °C | CCn1c(Oc2cccc(NC(=O)N(C)C)c2)nnc1[C@@H](C)NS(=O)(=O)c1ccc(Cl)c(Cl)c1
61 to 63 °C | Cc1ccc(C(=O)CCCCCBr)cc1C
80 to 82 °C | CCCCC(OC(C)=O)c1ccccc1COc1cccc2cccnc12 (configuration not stated)
178 to 179 °C | CCOC(=O)c1csc2cc(Oc3cc(Cl)nc(N)n3)ccc12
90 to 91 °C | COc1cccc2sc(-c3ccc(C(C)(C)C)cc3)nc12
